Source: publication PMC11318023, “Discovery of VU6008677: A Structurally Distinct Tricyclic M4 Positive Allosteric Modulator with Improved CYP450 Profile” (ACS Medicinal Chemistry Letters, 2024)

Experiments:
[1] = biological target: T1, human M4 (hM4) (Homo sapiens, UniProt P08173); assay: Calcium mobilization assay, hM4/Gqi5-CHO cells, with EC20 acetylcholine (PAM); details: hM4/Gqi5-CHO cells, calcium mobilization; for hM4 pEC50 / hM4 %ACh Max: EC20 acetylcholine; for hM4 %ACh Max: maximum response; for EC50: read-out: hM4 EC50, EC20 fixed concentration of acetylcholine
T1 sequence (P08173 1-479): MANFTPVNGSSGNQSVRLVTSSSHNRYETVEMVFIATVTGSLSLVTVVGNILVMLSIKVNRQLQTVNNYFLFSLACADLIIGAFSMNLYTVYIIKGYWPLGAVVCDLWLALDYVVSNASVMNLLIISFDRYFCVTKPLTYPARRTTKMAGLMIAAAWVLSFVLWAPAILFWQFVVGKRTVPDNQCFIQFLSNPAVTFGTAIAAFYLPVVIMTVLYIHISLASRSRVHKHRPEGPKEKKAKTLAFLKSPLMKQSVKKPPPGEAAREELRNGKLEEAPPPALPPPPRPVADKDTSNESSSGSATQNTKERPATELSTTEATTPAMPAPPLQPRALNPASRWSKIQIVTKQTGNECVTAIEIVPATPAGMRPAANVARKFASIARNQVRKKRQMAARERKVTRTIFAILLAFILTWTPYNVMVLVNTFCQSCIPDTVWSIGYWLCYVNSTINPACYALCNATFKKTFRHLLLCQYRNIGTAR

[2] = biological target: T2, human M2 (hM2) (Homo sapiens, UniProt P08172); assay: Calcium mobilization assay, hM2/Gqi5-CHO cells, with EC20 acetylcholine; format: cell-based
T2 construct: expressed in transfected cells
T2 sequence (P08172 1-466): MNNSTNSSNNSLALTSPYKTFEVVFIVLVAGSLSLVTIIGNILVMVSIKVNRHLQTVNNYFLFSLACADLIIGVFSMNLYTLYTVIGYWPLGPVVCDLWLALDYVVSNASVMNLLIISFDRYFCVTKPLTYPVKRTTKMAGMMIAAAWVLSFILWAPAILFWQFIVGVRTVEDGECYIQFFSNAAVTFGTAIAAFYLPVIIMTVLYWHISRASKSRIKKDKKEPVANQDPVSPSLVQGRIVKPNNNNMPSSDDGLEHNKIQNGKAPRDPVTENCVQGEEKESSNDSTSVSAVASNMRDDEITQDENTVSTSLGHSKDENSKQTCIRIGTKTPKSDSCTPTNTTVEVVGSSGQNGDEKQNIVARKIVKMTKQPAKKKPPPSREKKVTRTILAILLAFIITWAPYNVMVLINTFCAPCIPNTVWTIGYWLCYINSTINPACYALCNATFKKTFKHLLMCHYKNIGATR
Description: buffer remained in the cell plates. […] After establishment of a […]

[3] = Intrinsic clearance in rat liver microsomes (substrate depletion), predicted hepatic clearance; format: in vitro ADME; details: for CLint scaled at 1 µM: pH 7.4, rat liver microsomes; for CLhep, rat (predicted hepatic clearance): predicted from rat microsomal CLint
[4] = Intrinsic clearance in human liver microsomes (substrate depletion), predicted hepatic clearance; format: in vitro ADME; details: for CLint scaled at 1 µM: pH 7.4, human liver microsomes; for CLhep, human (predicted hepatic clearance): predicted from human microsomal CLint
[5] = Binding in plasma from rat, equilibrium dialysis; format: in vitro ADME; details: read-out: rat fu,plasma
[6] = Binding in plasma from human, equilibrium dialysis; format: in vitro ADME; details: for fraction unbound at 6 h, 5 µM: human, plasma, read-out: human fu,plasma
[7] = Binding in brain homogenate from rat, equilibrium dialysis; format: in vitro ADME; details: rat brain homogenates; for fraction unbound at 6 h, 1 µM: rat, brain homogenate, read-out: rat fu,brain
[8] = biological target: T3, CYP 1A2 (Homo sapiens, UniProt P05177); assay: CYP450 inhibition in pooled human liver microsomes, CYP-specific probe substrates; format: in vitro ADME; details: pooled HLM, NADPH, CYP-specific probe substrate
T3 sequence (P05177 1-516): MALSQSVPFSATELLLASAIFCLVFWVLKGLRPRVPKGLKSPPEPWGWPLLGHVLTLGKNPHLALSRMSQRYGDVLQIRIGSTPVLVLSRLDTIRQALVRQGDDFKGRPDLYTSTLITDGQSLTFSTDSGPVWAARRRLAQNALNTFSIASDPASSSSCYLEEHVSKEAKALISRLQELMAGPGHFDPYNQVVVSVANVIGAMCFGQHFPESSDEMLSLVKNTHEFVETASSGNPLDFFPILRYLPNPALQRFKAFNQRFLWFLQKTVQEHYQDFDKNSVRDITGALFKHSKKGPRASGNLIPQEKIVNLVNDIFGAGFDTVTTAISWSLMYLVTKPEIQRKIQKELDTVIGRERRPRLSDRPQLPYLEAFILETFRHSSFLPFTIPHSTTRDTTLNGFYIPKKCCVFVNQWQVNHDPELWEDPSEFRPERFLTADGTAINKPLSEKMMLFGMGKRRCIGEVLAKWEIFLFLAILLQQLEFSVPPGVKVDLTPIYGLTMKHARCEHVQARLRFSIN

[9] = biological target: CYP 2C9 (Homo sapiens, UniProt P11712); assay: as above; format: in vitro ADME; details: pooled HLM, NADPH, CYP-specific probe substrate
Sequence of CYP 2C9 (P11712 whole entry): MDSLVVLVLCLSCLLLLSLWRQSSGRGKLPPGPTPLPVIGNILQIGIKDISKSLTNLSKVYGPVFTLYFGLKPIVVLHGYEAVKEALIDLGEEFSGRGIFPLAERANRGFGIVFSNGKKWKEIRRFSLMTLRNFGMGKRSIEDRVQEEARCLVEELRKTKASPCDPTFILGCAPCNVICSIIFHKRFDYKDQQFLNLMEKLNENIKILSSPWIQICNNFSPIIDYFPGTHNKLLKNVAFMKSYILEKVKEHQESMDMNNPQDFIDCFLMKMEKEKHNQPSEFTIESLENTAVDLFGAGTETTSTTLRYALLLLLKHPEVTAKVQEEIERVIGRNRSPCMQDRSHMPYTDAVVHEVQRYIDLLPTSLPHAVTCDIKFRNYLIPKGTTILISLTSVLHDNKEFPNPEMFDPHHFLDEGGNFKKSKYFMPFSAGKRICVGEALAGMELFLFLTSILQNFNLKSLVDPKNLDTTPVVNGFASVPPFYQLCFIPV

[10] = biological target: CYP 2D6 (Homo sapiens, UniProt P10635); assay: as above; format: in vitro ADME; details: pooled HLM, NADPH, CYP-specific probe substrate
Sequence of CYP 2D6 (P10635 whole entry): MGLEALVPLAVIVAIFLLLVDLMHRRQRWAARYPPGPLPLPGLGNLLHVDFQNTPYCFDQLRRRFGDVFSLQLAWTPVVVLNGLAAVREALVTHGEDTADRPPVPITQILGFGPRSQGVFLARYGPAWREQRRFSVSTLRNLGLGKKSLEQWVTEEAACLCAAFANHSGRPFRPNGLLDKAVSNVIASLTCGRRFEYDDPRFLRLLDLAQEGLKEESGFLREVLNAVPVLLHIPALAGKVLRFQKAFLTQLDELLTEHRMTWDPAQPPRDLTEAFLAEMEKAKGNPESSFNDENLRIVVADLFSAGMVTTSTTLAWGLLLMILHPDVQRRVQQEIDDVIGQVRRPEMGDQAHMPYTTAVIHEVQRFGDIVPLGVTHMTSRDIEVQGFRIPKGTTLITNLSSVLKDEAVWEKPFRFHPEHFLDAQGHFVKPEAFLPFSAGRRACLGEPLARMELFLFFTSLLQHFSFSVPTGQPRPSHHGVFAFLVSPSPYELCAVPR

[11] = biological target: CYP 3A4 (Homo sapiens, UniProt P08684); assay: as above; format: in vitro ADME; details: pooled HLM, NADPH, CYP-specific probe substrate
Sequence of CYP 3A4 (P08684 whole entry): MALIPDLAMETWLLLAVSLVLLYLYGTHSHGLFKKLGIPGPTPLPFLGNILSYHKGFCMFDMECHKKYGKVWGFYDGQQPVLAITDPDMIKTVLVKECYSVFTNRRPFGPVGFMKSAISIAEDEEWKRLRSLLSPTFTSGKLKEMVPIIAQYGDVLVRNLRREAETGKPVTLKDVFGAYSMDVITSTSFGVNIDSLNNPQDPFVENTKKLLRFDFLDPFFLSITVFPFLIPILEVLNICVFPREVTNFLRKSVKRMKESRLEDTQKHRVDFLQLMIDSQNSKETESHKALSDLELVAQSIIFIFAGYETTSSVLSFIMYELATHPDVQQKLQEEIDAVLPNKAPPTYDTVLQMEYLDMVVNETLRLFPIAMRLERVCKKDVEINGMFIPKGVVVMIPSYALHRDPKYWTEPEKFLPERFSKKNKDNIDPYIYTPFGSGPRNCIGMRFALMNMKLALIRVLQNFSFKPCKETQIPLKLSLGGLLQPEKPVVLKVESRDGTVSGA

Row | SMILES | hM4 pEC50 [1] | hM4 %ACh Max [1] | EC50 [1] | CLint scaled at 1 µM [3] | CLhep, rat (predicted hepatic clearance) [3] | CLint scaled at 1 µM [4] | CLhep, human (predicted hepatic clearance) [4] | fraction unbound at 6 h, 5 µM [5] | fraction unbound at 6 h, 1 µM [7] | IC50 [8] | IC50 [9] | IC50 [10] | IC50 [11] | further results
1 | Cc1nc2sc3c(NCc4ccc(OC(F)F)cc4)nncc3c2c(C)c1Cl [Compound 22e] | 6.27 | 41% | – | – | – | – | – | – | – | – | – | – | – | –
2 | COc1ccc(CNc2ncnc3c2oc2nc(C)c(Cl)c(C)c23)cc1F.Cl [Compound 14a] | <5.00 | 49% | > 10 µM | – | – | – | – | – | – | – | – | – | – | –
3 | Cc1nc2oc3c(NCc4ccc(C(C)(C)O)cc4)ncnc3c2c(C)c1Cl [Compound 14c] | 5.93 | 62% | 1.2 µM | – | – | – | – | – | – | – | – | – | – | –
4 | Cc1c(Cl)cnc2sc3c(NCc4ccncc4)ncnc3c12 [Compound 15d] | 6.50 | 84% | 0.32 µM | – | – | – | – | – | – | – | – | – | – | –
5 | Cc1nc2sc3c(NC4CCC4)nncc3c2c(C)c1Cl.Cl [Compound 22j] | – | – | – | 1280 mL/min/kg | 66 mL/min/kg | 49 mL/min/kg | 15 mL/min/kg | 0.026 | 0.006 | 0.52 µM | > 30 µM | 19.2 µM | > 30 µM | EC50 [2]: > 10 µM; hM2 % ACh Max [2]: 44%; fraction unbound at 6 h, 5 µM [6]: 0.005
6 | Cc1nc2sc3c(NC4CC4)ncnc3c2c(C)c1Cl.Cl [Compound 13l] | – | – | – | 423 mL/min/kg | 60 mL/min/kg | 78 mL/min/kg | 17 mL/min/kg | ≤ 0.01 | 0.001 to 0.005 | < 0.1 µM | > 15.8 µM | > 30 µM | 15.8 µM | EC50 [2]: 5 µM; hM2 % ACh Max [2]: 49%; rat fu,brain ([7]; fraction unbound): 0.001
7 | Cc1nc2oc3c(NC4CC4)ncnc3c2c(C)c1Cl.Cl [Compound 14o] | – | – | – | 175 mL/min/kg | 50 mL/min/kg | 37 mL/min/kg | 13 mL/min/kg | 0.06 | 0.017 | < 0.1 µM | ≥ 30 µM | ≥ 30 µM | ≥ 30 µM | hM2 EC50 [2]: inactive; human fu,plasma ([6]; fraction unbound): 0.007; fraction unbound at 6 h, 5 µM [6]: < 0.01
8 | COc1ccc(CNc2nncc3c2sc2nc(C)c(Cl)c(C)c23)cc1F [Compound 22a] | 5.88 | 69% | 1.3 µM | – | – | – | – | – | – | – | – | – | – | –
9 | Cc1ncc(CNc2ncnc3c2sc2nc(C)c(Cl)c(C)c23)cn1.Cl [Compound 13b] | < 5.00 | 75% | > 10 µM | – | – | – | – | – | – | – | – | – | – | –
10 | Cc1nc2sc3c(NC4CC(c5ccncc5)C4)ncnc3c2c(C)c1Cl.Cl (stereo not drawn) [Compound 13h] | 5.82 | 84% | 1.5 µM | – | – | – | – | – | – | – | – | – | – | –
11 | Cc1nc2sc3c(NC4CC(F)(F)C4)nncc3c2c(C)c1Cl.Cl [Compound 22k] | – | – | – | 1670 mL/min/kg | 67 mL/min/kg | 185 mL/min/kg | 19 mL/min/kg | 0.057 | 0.008 | 0.98 µM | > 30 µM | 25.2 µM | > 30 µM | EC50 [2]: 0.26 µM; hM2 % ACh Max [2]: 49%; fraction unbound at 6 h, 5 µM [6]: 0.01
